Test results taken from patent US20020137929A1, “1 - (3-heterocyclylphenyl) isothiourea, -isourea, -guanidine and -amidine herbicidal agents” (Intellectual Property Department, BASF Aktiengesellschaft, priority 1998, published 2002).

Assays:
MOOVA (Monochoria) = test: Preemergence weed control under flooded paddy conditions; type: in vivo, Monochoria vaginalis; conditions: rated 3-4 weeks after treatment
In short: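 Visual injury scored 0-9 against control three to four weeks post-treatment, greenhouse-grown. Application: acetone/water (50/50) solutions dosed directly into flood water (1.5-3 cm over silt loam, planted top 0.5 cm), roughly 0.0313 to 0.500 kg/ha active ingredient.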

SETVI (Foxtail, Green) [1] = test: Postemergence herbicidal evaluation; type: in vivo, Setaria viridis; conditions: postemergence
In short: (§1)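 Each compound, dispersed in an acetone/water mix (50/50) carrying 0.5% TWEEN 20, is nozzle-sprayed at 40 psi on approximately two-week-old seedlings at about 0.0156–0.500 kg/ha. Plants are assessed 4–5 weeks afterward on a 0–9 scale relative to control; duplicate tests are averaged.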

[2] = test system: ECHORC (Watergrass (Calif.)); test: Preemergence weed control under flooded paddy conditions; type: in vivo, Echinochloa oryzoides; conditions: rated 3-4 weeks after treatment
In short: (§2)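 Herbicidal effect is scored visually on a 0-9 scale against an untreated control, three to four weeks after compounds are pipetted into the flood water (1.5 to 3 cm deep) over seeds planted in silt loam at 0.5 cm depth. Rates: about 0.0313 to 0.500 kg/ha.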

GALAP (Galium) = test: Postemergence herbicidal evaluation; type: in vivo, Galium aparine; conditions: postemergence
In short: as §1

SETVI (Foxtail, Green) [3] = test: Preemergence herbicidal evaluation; type: in vivo, Setaria viridis; conditions: preemergence, rated 4-5 weeks after treatment, 0-9 scale
In short: (§3)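 Herbicidal effect scored visually, 0-9, at 4 to 5 weeks against a control; compound applied preemergence by aqueous acetone spray to seeded soil at about 0.0156 to 0.500 kg/ha.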

[4] = test system: SAGPY (Arrowhead (Pygmaea)); test: Postemergence weed control under flooded paddy conditions; type: in vivo, Sagittaria pygmaea; conditions: postemergence weeds, rated 3 to 4 weeks after treatment
In short: (§4)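 Injury ratings (0–9 scale covering stand, vigor, malformation, size, chlorosis and overall appearance versus control) were made three to four weeks after treatment. Test material, about 0.0313 to 0.500 kg/ha a.i. in 50/50 v/v aqueous/acetone, was added to flood water 1.5 to 3 cm deep over 3 to 5 cm weeds and 1.5 to 2.5 leaf rice.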

CYPIR (Rice Flatsedge) = test: Preemergence weed control under flooded paddy conditions; type: in vivo, Cyperus iria; conditions: rated 3-4 weeks after treatment
In short: as §2

ZEAMX (Corn, Field) = test: Preemergence herbicidal evaluation; type: in vivo, Zea mays; conditions: preemergence, rated 4-5 weeks after treatment, 0-9 scale
In short: as §3

[5] = test system: IPOHE (Morningglory, Ivyleaf); test: Postemergence herbicidal evaluation; type: in vivo, Ipomoea hederacea; conditions: postemergence
In short: as §1

[6] = test system: IPOHE (Morningglory, Ivyleaf); test: Preemergence herbicidal evaluation; type: in vivo, Ipomoea hederacea; conditions: preemergence, rated 4-5 weeks after treatment, 0-9 scale
In short: as §3

[7] = test system: ECHORC (Watergrass (Calif.)); test: Postemergence weed control under flooded paddy conditions; type: in vivo, Echinochloa oryzoides; conditions: postemergence weeds, rated 3 to 4 weeks after treatment
In short: as §4

ABUTH (Velvetleaf) = test: Preemergence herbicidal evaluation; type: in vivo, Abutilon theophrasti; conditions: preemergence, rated 4-5 weeks after treatment, 0-9 scale
In short: as §3

[8] = test system: TRZAWR (Wheat, Winter, cv Riband); test: Postemergence herbicidal evaluation; type: in vivo, Triticum aestivum; conditions: postemergence
In short: as §1

ECHCG (Barnyardgrass) = test: Preemergence herbicidal evaluation; type: in vivo, Echinochloa crus-galli; conditions: preemergence, rated 4-5 weeks after treatment, 0-9 scale
In short: as §3

Structure (SMILES): CN1C(=O)C(CC(N)=O)SC1=Nc1cc(-n2c(=O)cc(C(F)(F)F)n(C)c2=O)c(F)cc1Cl (stereo not drawn) [Compound 92, 2-{{2-Chloro-5-[3,6-dihydro-3-methyl-2,6-dioxo-4-(trifluoromethyl)-1(2H)-pyrimidinyl]-4-fluorophenyl}imino}-3-methyl-4-oxo-5-thiazolidineacetamide]
- MOOVA herbicidal effect rating (MOOVA (Monochoria); 0.0313 kg/ha): 9.0
- MOOVA herbicidal effect rating (MOOVA (Monochoria); 0.0625 kg/ha): 9.0
- MOOVA herbicidal effect rating (MOOVA (Monochoria); 0.1250 kg/ha): 9.0
- MOOVA herbicidal effect rating (MOOVA (Monochoria); 0.2500 kg/ha): 9.0
- SETVI herbicidal rating (SETVI (Foxtail, Green) [1]; rate 0.0158 kg/ha): 0.0
- SETVI herbicidal rating (SETVI (Foxtail, Green) [1]; rate 0.0315 kg/ha): 9.0
- SETVI herbicidal rating (SETVI (Foxtail, Green) [1]; rate 0.0630 kg/ha): 9.0
- ECHORC herbicidal effect rating ([2]; 0.0313 kg/ha): 0.0
- ECHORC herbicidal effect rating ([2]; 0.0625 kg/ha): 0.0
- ECHORC herbicidal effect rating ([2]; 0.1250 kg/ha): 2.0
- ECHORC herbicidal effect rating ([2]; 0.2500 kg/ha): 3.0
- GALAP herbicidal rating (GALAP (Galium); rate 0.0158 kg/ha): 0.0
- GALAP herbicidal rating (GALAP (Galium); rate 0.0315 kg/ha): 3.0
- GALAP herbicidal rating (GALAP (Galium); rate 0.0630 kg/ha): 4.0
- SETVI rating (SETVI (Foxtail, Green) [3]; 0.0156 kg/ha): 0.0
- SETVI rating (SETVI (Foxtail, Green) [3]; 0.0313 kg/ha): 0.0
- SETVI rating (SETVI (Foxtail, Green) [3]; 0.0625 kg/ha): 0.0
- SETVI rating (SETVI (Foxtail, Green) [3]; 0.1250 kg/ha): 0.0
- SETVI rating (SETVI (Foxtail, Green) [3]; 0.2500 kg/ha): 9.0
- Herbicidal rating SAGPY ([4]; Rate 0.0313 kg/ha): 0.0
- Herbicidal rating SAGPY ([4]; Rate 0.0625 kg/ha): 0.0
- Herbicidal rating SAGPY ([4]; Rate 0.1250 kg/ha): 4.0
- Herbicidal rating SAGPY ([4]; Rate 0.2500 kg/ha): 9.0
- CYPIR herbicidal effect rating (CYPIR (Rice Flatsedge); 0.0313 kg/ha): 3.0
- CYPIR herbicidal effect rating (CYPIR (Rice Flatsedge); 0.0625 kg/ha): 3.0
- CYPIR herbicidal effect rating (CYPIR (Rice Flatsedge); 0.1250 kg/ha): 5.0
- CYPIR herbicidal effect rating (CYPIR (Rice Flatsedge); 0.2500 kg/ha): 7.0
- ZEAMX rating (ZEAMX (Corn, Field); 0.0156 kg/ha): 0.0
- ZEAMX rating (ZEAMX (Corn, Field); 0.0313 kg/ha): 0.0
- ZEAMX rating (ZEAMX (Corn, Field); 0.0625 kg/ha): 0.0
- ZEAMX rating (ZEAMX (Corn, Field); 0.1250 kg/ha): 0.0
- ZEAMX rating (ZEAMX (Corn, Field); 0.2500 kg/ha): 6.0
- IPOHE herbicidal rating ([5]; rate 0.0158 kg/ha): 9.0
- IPOHE herbicidal rating ([5]; rate 0.0315 kg/ha): 9.0
- IPOHE herbicidal rating ([5]; rate 0.0630 kg/ha): 9.0
- IPOHE rating ([6]; 0.0156 kg/ha): 0.0
- IPOHE rating ([6]; 0.0313 kg/ha): 0.0
- IPOHE rating ([6]; 0.0625 kg/ha): 0.0
- IPOHE rating ([6]; 0.1250 kg/ha): 9.0
- IPOHE rating ([6]; 0.2500 kg/ha): 9.0
- Herbicidal rating ECHORC ([7]; Rate 0.0313 kg/ha): 0.0
- Herbicidal rating ECHORC ([7]; Rate 0.0625 kg/ha): 0.0
- Herbicidal rating ECHORC ([7]; Rate 0.1250 kg/ha): 2.0
- Herbicidal rating ECHORC ([7]; Rate 0.2500 kg/ha): 3.0
- ABUTH rating (ABUTH (Velvetleaf); 0.0156 kg/ha): 0.0
- ABUTH rating (ABUTH (Velvetleaf); 0.0313 kg/ha): 3.0
- ABUTH rating (ABUTH (Velvetleaf); 0.0625 kg/ha): 9.0
- ABUTH rating (ABUTH (Velvetleaf); 0.1250 kg/ha): 9.0
- ABUTH rating (ABUTH (Velvetleaf); 0.2500 kg/ha): 9.0
- TRZAWR herbicidal rating ([8]; rate 0.0158 kg/ha): 5.0
- TRZAWR herbicidal rating ([8]; rate 0.0315 kg/ha): 6.0
- TRZAWR herbicidal rating ([8]; rate 0.0630 kg/ha): 6.5
- ECHCG rating (ECHCG (Barnyardgrass); 0.0156 kg/ha): 0.0
- ECHCG rating (ECHCG (Barnyardgrass); 0.0313 kg/ha): 0.0
- ECHCG rating (ECHCG (Barnyardgrass); 0.0625 kg/ha): 0.0
- ECHCG rating (ECHCG (Barnyardgrass); 0.1250 kg/ha): 0.0
- ECHCG rating (ECHCG (Barnyardgrass); 0.2500 kg/ha): 0.0
